Measurements published in patent US5912245A, “Acid amide derivatives and process for the preparation thereof” (Egis Gyogyszergyar RT., priority 1994, dated 1999).
Entries after “also recorded” stand apart in the source; their conditions may differ.

Experiments:
[1] = biological target: NMDA (CGS 19755 receptor); assay: Selectivity: CGS 19755 receptor binding test
Method: The experiment was carried out according to the method of Foster et al. [A. Foster and E. H. F. Wong: Brit.

AMPA and kainate = AMPA and kainate antagonism (overall conclusion from the binding and selectivity tests)
Method: (§1) The experiment was carried out according to the method of Murphy et al. [D. E. Murphy, E. W. Snowhill, M. Williams: Neurochem. Res. 12, 775-782 (1987)] using a membrane specimen isolated from rat brain. The binding of kainate labeled with tritium on a rat cortex specimen was measured according to the method of Honore et al. [T. Honore, J. Dejer and M. Nielsen: Neurosci. Lett. 65, 48-52 (1986)].
The experiment was carried out according to the method of Foster et al. [A. Foster and E. H. F. Wong: Brit. J. Pharmacol. 91, 403-409, (1987)]. When applying the CGS 19755 receptor binding test the method of Murphy et al. [D. E. Murphy, A. J. Hutchison, S. D. Hurt, M. Williams and M. A. Sills: Brit. J. Pharmacol. 95, 932-938 (1988)] was applied.

kainate recognition site = assay: ^3H-kainate binding (radioligand competitive binding assay); set-up: species or system rat; conditions: compared with DNQX
Method: (§2) 1. ^3 H-AMPA and ^3 H-kainate binding (radioligand competitive binding assay)
as §1

AMPA recognition site = assay: ^3H-AMPA binding (radioligand competitive binding assay); set-up: species or system rat; conditions: compared with DNQX
Method: as §2, §1

AMPA = conditions: cited from earlier work

Binding of ^3H-CGS-19755 Ki [1] | AMPA and kainate antagonism, in words (AMPA and kainate) | Compound | displacement of labeled kainate, in words (kainate recognition site) | displacement of labeled AMPA, in words (AMPA recognition site) | AMPA antagonizing property, in words (AMPA)
does not "converge" | selective AMPA and kainate antagonists | O=c1[nH]c2cc([N+](=O)[O-])c(S(=O)(=O)N(CCO)CCO)cc2[nH]c1=O [Example 24, N,N-bis(2-Hydroxyethyl)-1,2,3,4-tetrahydro-7-nitro-2,3-dioxo-6-quinoxaline sulfonamide] |  |  | 
not "converge" | selective AMPA and kainate antagonists | O=c1[nH]c2cc([N+](=O)[O-])c(S(=O)(=O)NCCN3CCCCC3)cc2[nH]c1=O [Example 17, 1,2,3,4-Tetrahydro-7-nitro-2,3-dioxo-N-(2-piperidinoethyl)-6-quinoxaline sulfonamide] | affinity similar to that of DNQX; also recorded: good reversible ligand | affinity similar to that of DNQX; also recorded: good reversible ligand | 
 |  | N#Cc1cc2[nH]c(=O)c(=O)[nH]c2cc1[N+](=O)[O-] [CNQX, 6-cyano-7-nitro-quinoxaline-2,3-dione] |  |  | selective AMPA antagonizing property

Compound | Binding of ^3H-CGS-19755 Ki [1] | AMPA and kainate antagonism, in words (AMPA and kainate) | displacement of labeled kainate, in words (kainate recognition site) | displacement of labeled AMPA, in words (AMPA recognition site) | AMPA antagonizing property, in words (AMPA)
O=c1[nH]c2cc([N+](=O)[O-])c([N+](=O)[O-])cc2[nH]c1=O [DNQX, 6,7-dinitroquinoxaline-2,3-dione, reference compound] | does not "converge" |  |  |  | selective AMPA antagonizing property
